The values that follow come from patent US20030077768A1, “Use of xylene monooxygenase for the oxidation of substituted polycyclic aromatic compounds” (priority 2001, published 2003).

The test system of one series is Sphingomonas strain ASU1. In words: Carbon source utilization (growth on S12 agar) by strain ASU1. Type of series: cell-based. The note with it: compound as sole source of carbon and energy, 28° C., listed as 2,6-DMN. The procedure:
S12 agar was used to isolate bacteria from liquid enrichment cultures that grow on 2,6-DMN and to test isolates for growth with various sources of carbon and energy. S12 agar was prepared by adding 1.5% Noble agar (DIFCO) to S12 medium.
Since 2,6-DMN has low aqueous solubility, bacteria growing in S12 medium were supplied with 2,6-DMN by adding a few flakes of the compound directly to the culture. Bacteria growing on S12 agar were supplied with naphthalene, 2-methylnapthalene or 2,6-DMN by placing a few flakes of the compound on the interior of the petri dish lid. All petri dishes were sealed with parafilm and incubated with the lid on the bottom.
Bacteria that grow on 2,6-DMN were isolated from an enrichment culture. The enrichment culture was established by inoculating 0.1 mL of activated sludge into 10 mL of S12 medium in a 125 mL screw cap Erlenmeyer flask. The activated sludge was obtained from a DuPont wastewater treatment facility. The enrichment culture was supplemented with adding yeast extract (0.001% final concentration) by adding a few flakes of 2,6-DMN directly to the culture medium. The enrichment culture was incubated at 28° C. with reciprocal shaking. The culture was diluted every 4 to 7 d by replacing 9 mL of the culture with the same volume of S12 medium with 0.001% yeast extract and a few additional flakes of 2,6-DMN. […]

In series [1] the test system is ASU1 xylene monooxygenase. In words: Oxidation of 2,6-DMN by Escherichia coli recombinant with cloned ASU1 xylene monooxygenase genes (Clone 4a). The format is cell-based, Sphingomonas strain ASU1. The note with it: E. coli Clone 4a; M9 medium; 24 mg 2,6-DMN in FC-75 carrier phase; 37° C.; HPLC and GC/MS; metabolites 6-M-2-HMN, 6-M-2-NA, 2,6-NDC. The procedure:
(§1) HPLC system used was a Hewlett Packard 1100 series with a photo diode array detector and LC/MSD-ESI Negative ion. Column used was Hewlett Packard part #880975-902 Zorbax® SB-C18 (4.6×12.5 mm, 5 micron), purchased from Agilient Technologies (Foster City, Calif.). The column temperature was controlled at 30° C. Mobile phase was […] ammonium acetate [20 mL 1 M ammonium acetate in 1800 mL water (solvent-2=S-2)] and acetonitrile (Solvent-1=S-1). The gradient used was 0-3 min 10% S-1 and 90% S-2, gradient was increased to 100% S-1 in 33 min, and again reduced to 10% S-1 and 90% S-2 in 3 min. Flow rate used for the mobile phase was 0.9 mL/min. 100 μL samples were injected, 230 nm wavelength was used for detection of the intermediates of 2,6-dimethylnaphthalene. Intermediates were prepared by as follows, as intermediates needed were not available in the market. Intermediates prepared were 6-methyl-2-napthoic acid, 6-methyl-2-hydroxymethylnaphthalene, and 2,6-Bis(hydroxymethyl)naphthalene. The retention time and diode array scans of the intermediates matched with the prepared standards. The mass spectrometer fragmentation pattern of the 6-methyl-2-napthoic acid in the sample matched that of the standards prepared.
(§2) GC/MS was also used to analyze the samples. […]
(§3) The conversion of 2,6-DMN to 2,6-NDC was monitored by reverse phase HPLC. […]

Series [2] deals with T1, pWWO xylene monooxygenase (Pseudomonas putida, UniProt P21395).
T1 construct: A fragment of pWWO DNA that contained xylM and xylA was cloned into a small, multicopy plasmid; expressed in transfected cells; host or cells: Escherichia coli TOP10 carrying pCR2.1-TOPO with the 2.4 kb pWWO xylM-xylA PCR fragment from strain ATCC 33015 (Clone 6f)
The series can be described thus: Oxidation of 2,6-DMN by Escherichia coli recombinant with cloned pWWO xylene monooxygenase genes (Clone 6f). The format is cell-based. The note with it: E. coli Clone 6f; M9 medium; 24 mg 2,6-DMN in FC-75 carrier phase; 37° C.; HPLC and GC/MS; metabolites 6-M-2-HMN, 6-M-2-NA, 2,6-HMN. The procedure:
as §1, §2, §3

Series [3] can be described thus: Aqueous solubility (statement). Type of series: physicochemical.

T1 sequence (P21395 whole entry, the tested form may be a part): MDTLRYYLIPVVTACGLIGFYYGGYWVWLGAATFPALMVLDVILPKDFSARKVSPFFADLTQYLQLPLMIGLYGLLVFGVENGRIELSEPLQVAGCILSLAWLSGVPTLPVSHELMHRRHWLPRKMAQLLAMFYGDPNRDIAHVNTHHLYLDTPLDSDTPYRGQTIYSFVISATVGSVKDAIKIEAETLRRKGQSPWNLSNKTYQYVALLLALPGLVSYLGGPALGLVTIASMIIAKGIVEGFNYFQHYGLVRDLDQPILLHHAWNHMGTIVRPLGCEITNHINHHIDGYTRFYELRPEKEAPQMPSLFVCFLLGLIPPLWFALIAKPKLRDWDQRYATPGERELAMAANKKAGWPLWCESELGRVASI

Consider `Cc1ccc2cc(C)ccc2c1` [2,6-dimethylnaphthalene, 2,6-Dimethylnaphthalene], for which, in the series on Sphingomonas strain ASU1, the “Growth on Carbon Source” value was “able to grow”. For the same molecule, the “Substrate for the ASU1 xylene monooxygenase (oxidation by Clone 4a)” value in series [1] is listed as “substrate”. The “Substrate for the pWWO xylene monooxygenase (oxidation by Clone 6f)” value in series [2] is recorded as “substrate”. Further, the aqueous solubility entry in series [3] was “low”.
